# Tested on: Male C57 mice
# Experiment: Forced Swim Test
# Assay type: in vivo
# Conditions: 10 mg/kg, intraperitoneally, 0.5h after administration; compared to the solvent control group; Figure 1
# Experimental: Drugs to be tested: The compounds of the present invention and the positive control compound (vortioxetine) were mixed with 5% DMSO, then mixed with 5% Solutol® HS 15, and then 90% physiological saline was added to prepare a solution of appropriate concentration. The solution was prepared immediately before use.
# Animal: Male C57 mice, approximately 22g. Animals were randomly divided into a blank control group and each test drug group, with 8 animals in each group. Mice in each group were intraperitoneally injected with either the solvent or the test drug.
# Experimental Procedure: Forced swimming test was performed on the mice 0.5h after drug administration. The water level in the forced swimming device was 45cm, and the water temperature was 25°C. The mice were placed in the experimental room for 1h to acclimatize before the experiment. Mice were placed in the device at the start of the experiment for 6 minutes, and the entire process was recorded by a camera. Data analysis only considered the immobility time of the mice during the last 4 minutes.
smiles,measurement,value
Cc1ccc(Sc2ccccc2N2CCNCC2)c(C)c1 [vortioxetine],immobility time of mice,significantly reduced the immobility time

# From patent EP4786467A1, “QUINOLINONE COMPOUND, PREPARATION METHOD THEREFOR AND USE THEREOF” (Vigonvita Life Sciences Co., Ltd., priority 2023, dated 2025)
